Reference: PMC6620029 (Combinatorial chemistry & high throughput screening, 2009)

Biological target: human serum albumin (HSA) (Homo sapiens, UniProt P02768)
Assay: 1D 1H NMR line broadening with HSA
Assay type: binding

Chain of human serum albumin (HSA) (P02768 25-609): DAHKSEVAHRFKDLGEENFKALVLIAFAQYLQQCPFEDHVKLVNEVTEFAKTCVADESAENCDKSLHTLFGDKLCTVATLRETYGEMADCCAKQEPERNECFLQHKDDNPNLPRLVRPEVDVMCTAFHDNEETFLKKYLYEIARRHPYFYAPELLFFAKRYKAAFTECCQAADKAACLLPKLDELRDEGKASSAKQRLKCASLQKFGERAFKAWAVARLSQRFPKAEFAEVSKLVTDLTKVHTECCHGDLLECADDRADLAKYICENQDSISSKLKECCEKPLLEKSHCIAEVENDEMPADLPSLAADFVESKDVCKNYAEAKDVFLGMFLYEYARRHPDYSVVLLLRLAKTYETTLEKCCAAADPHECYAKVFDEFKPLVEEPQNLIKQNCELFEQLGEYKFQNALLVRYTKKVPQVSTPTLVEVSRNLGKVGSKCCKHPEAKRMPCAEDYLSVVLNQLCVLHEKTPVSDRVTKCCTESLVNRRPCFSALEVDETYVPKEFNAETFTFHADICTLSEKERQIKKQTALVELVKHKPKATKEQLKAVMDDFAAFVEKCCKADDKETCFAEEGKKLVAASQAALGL

Cc1cc(=O)oc2cc(O)ccc12 [7-hydroxy-4-methyl coumarin]
1D 1H NMR line broadening with HSA; competition with warfarin: The NMR resonances of the coumarin-analogue broaden (Fig (6a, b)) from the addition of HSA
